Reference: patent US12447170B2, “Use of maribavir in treatment regimens” (priority 2021, dated 2025)
Entries after “also recorded” stand apart in the source; their conditions may differ. Where two headings read alike, the source gives them in different places.

How the values were obtained:
[1] = Observed clinical interaction of maribavir with ketoconazole in healthy subjects; type: in vivo, human; details: for AUC(0-inf) / Cmax: human, in vivo, 400 mg
Procedure: (§1) A comparison of observed and predicted plasma concentrations of maribavir following a single oral dose of 400 mg administered in the absence of ketoconazole (a CYP3A4 inhibitor) and 1 hour after a single 400 mg dose of ketoconazole to healthy subjects was performed.

[2] = PBPK simulation of maribavir with ketoconazole (CYP3A4 inhibitor); design: species or system human
Procedure: as §1

[3] = target: T1, CYP3A4 (Homo sapiens, UniProt P08684); assay: Reversible CYP inhibition in human liver microsomes (HLM); type: in vitro ADME; details: up to 100 μM
T1 construct: from tissue; host or cells: human liver microsomes
T1 sequence (P08684 whole entry): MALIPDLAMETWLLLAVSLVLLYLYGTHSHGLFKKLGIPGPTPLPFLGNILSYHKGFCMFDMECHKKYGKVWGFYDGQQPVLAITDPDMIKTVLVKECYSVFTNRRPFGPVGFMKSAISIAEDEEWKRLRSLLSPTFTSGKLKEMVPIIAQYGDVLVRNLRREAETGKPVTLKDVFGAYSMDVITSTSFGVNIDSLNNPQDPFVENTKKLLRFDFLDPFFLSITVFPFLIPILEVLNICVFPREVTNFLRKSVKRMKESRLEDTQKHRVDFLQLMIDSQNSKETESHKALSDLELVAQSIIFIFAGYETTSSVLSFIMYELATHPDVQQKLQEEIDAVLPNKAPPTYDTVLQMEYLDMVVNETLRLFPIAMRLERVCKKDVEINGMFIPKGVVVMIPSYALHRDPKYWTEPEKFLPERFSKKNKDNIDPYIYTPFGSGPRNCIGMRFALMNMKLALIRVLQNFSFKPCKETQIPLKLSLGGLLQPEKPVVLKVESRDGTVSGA
Procedure: (§2) HLM were used to evaluate maribavir's half maximal inhibitory concentration (IC50) on inhibition of activities of nine CYP isoforms. Probe substrates were phenacetin (CYP1A2), coumarin (CYP2A6), bupropion (CYP2B6), paclitaxel (CYP2C8), tolbutamide (CYP2C9), (S)-mephenytoin (CYP2C19), dextromethorphan (CYP2D6), clorzoxazone (CYP2E1), and midazolam and testosterone (CYP3A4).
(§3) CYP activities with 0, 0.1, 0.3, 1, 3, 10, 30, and 100 μM of maribavir were evaluated.

[4] = target: T2, CYP2A6 (Homo sapiens, UniProt P11509); assay: as above; type: in vitro ADME; details: up to 100 μM
T2 construct: from tissue; host or cells: human liver microsomes
T2 sequence (P11509 1-494): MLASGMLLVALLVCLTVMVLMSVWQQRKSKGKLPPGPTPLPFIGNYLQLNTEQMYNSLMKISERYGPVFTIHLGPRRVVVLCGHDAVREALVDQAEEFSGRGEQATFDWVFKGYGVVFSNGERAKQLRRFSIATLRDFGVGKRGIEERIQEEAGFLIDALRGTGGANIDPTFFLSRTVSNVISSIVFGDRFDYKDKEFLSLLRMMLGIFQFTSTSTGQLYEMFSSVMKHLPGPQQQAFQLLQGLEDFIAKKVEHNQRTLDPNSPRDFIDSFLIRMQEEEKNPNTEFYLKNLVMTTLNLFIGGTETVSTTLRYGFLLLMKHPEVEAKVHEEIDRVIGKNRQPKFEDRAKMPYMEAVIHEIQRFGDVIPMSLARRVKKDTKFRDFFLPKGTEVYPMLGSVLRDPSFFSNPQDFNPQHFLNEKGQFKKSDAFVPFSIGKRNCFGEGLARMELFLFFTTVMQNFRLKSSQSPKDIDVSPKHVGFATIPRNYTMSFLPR
Procedure: as §2, §3

[5] = target: T3, CYP2B6 (Homo sapiens, UniProt P20813); assay: as above; type: in vitro ADME; details: up to 100 μM
T3 construct: from tissue; host or cells: human liver microsomes
T3 sequence (P20813 1-491): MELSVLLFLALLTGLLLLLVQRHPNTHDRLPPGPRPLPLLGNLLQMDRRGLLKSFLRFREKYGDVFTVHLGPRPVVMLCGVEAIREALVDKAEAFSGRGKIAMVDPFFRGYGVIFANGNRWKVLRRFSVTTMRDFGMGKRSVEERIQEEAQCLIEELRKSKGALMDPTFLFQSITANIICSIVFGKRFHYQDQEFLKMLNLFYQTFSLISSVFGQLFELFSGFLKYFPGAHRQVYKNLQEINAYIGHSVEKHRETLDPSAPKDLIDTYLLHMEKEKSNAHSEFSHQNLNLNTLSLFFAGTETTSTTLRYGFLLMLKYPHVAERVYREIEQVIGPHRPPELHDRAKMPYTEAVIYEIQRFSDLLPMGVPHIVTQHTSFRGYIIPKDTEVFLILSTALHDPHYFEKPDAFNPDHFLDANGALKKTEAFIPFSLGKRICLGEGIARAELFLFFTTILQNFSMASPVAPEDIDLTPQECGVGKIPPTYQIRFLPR
Procedure: as §2, §3

[6] = target: T4, CYP2E1 (Homo sapiens, UniProt P05181); assay: as above; type: in vitro ADME; details: up to 100 μM
T4 construct: from tissue; host or cells: human liver microsomes
T4 sequence (P05181 whole entry): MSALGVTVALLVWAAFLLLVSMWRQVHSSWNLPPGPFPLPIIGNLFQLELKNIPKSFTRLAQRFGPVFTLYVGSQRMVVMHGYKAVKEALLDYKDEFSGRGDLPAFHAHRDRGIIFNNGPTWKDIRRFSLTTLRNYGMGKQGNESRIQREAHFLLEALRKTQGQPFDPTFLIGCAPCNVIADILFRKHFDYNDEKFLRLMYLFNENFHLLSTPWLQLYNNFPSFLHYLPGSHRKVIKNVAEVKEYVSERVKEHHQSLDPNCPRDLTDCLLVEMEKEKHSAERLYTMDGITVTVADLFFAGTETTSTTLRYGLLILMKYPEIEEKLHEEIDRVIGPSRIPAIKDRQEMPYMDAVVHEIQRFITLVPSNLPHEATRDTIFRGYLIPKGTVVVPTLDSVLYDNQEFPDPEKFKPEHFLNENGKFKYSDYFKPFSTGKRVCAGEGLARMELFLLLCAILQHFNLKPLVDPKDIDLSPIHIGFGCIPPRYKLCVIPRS
Procedure: as §2, §3

[7] = clinical; details: human, in vivo; for AUC(0-t): AUC(0-12 h)
Procedure: A combination of in vitro data and clinical pharmacokinetic data obtained following a single dose of 400 mg maribavir were used to develop the PBPK model. […] The Cmax was marginally under predicted, which could be expected because the PBPK model was optimized for better prediction of C12h.
A comparison of observed and predicted plasma concentrations of maribavir following single oral doses of 800 mg and 1600 mg to healthy patients […]. […] The simulated and observed maribavir concentrations were in reasonable agreement.
A comparison of observed and predicted plasma concentrations of maribavir following multiple oral 400 mg BID doses of maribavir was performed. […] The simulated and observed maribavir concentrations were in reasonable agreement.

[8] = clinical; details: human, in vivo
[9] = target: CYP3A (Homo sapiens, UniProt P08684); assay: Time-dependent inhibition of CYP3A in HLM (IC50 shift and enzyme inactivation kinetics); type: in vitro ADME; design: from tissue; host or cells: human liver microsomes; details: human liver microsomes; for kinact: read-out: kinact (maximum enzyme inactivation rate constant), TDI of CYP3A (converted)
Sequence of CYP3A (P08684 2-503): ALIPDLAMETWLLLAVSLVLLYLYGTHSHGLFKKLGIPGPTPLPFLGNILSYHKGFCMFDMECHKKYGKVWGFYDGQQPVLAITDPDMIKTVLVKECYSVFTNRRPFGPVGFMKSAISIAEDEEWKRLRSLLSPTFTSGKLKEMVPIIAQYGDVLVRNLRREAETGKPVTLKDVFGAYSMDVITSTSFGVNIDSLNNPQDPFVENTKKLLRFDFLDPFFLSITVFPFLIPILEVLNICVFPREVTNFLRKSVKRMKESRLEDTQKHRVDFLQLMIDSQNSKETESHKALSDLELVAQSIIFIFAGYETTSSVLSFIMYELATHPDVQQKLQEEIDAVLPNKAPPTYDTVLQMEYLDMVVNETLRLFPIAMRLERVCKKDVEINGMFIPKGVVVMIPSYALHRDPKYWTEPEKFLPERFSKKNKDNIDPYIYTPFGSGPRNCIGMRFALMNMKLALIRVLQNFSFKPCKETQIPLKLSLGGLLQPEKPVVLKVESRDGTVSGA
Procedure: Time-dependent inhibition (TDI) potentials for various CYP enzymes were evaluated by a 30 minute pre-incubation of maribavir with HLM in the presence and absence of nicotinamide-adenine dinucleotide […] (NADPH) followed by a CYP enzyme activity assay.
Enzyme inactivation kinetics of maribavir for the TDI of CYP3A, with midazolam and testosterone as probe substrates, was evaluated by pre-incubation of HLM with maribavir at various concentrations with NADPH for six different pre-incubation time frames. CYP3A activity was measured by determining the formation of CYP3A probe metabolite. Inhibitor concentration at half maximal enzyme inactivation (KI), and maximum enzyme inactivation rate constant (kinact), were estimated using non-linear least-square regression.

[10] = maribavir 400 mg single dose 1 hour after ketoconazole 400 mg
[11] = 400 mg, observed Geometric mean

## CC(C)Nc1nc2cc(Cl)c(Cl)cc2n1[C@H]1O[C@@H](CO)[C@H](O)[C@@H]1O [maribavir, (2S,3S,4R,5S)-2-(5,6-dichloro-2-(isopropylamino)-1H-benzo[d]imidazol-1-yl)-5-(hydroxymethyl)tetrahydrofuran-3,4-diol]
[1]; observed Geometric mean
  AUC(0-inf): 183 µg·h/mL
  Cmax: 21300 ng/mL
[1]; observed Mean
  AUC(0-inf): 194 µg·h/mL
  Cmax: 21800 ng/mL
[1]; with/without ketoconazole
  Ratio AUC(0-∞), observed Geometric mean: 1.53
  Ratio AUC(0-∞), observed Mean: 1.55
  Ratio Cmax, observed Geometric mean: 1.10
  Ratio Cmax, observed Mean: 1.12
[2]; [10]
  AUC(0-∞), GEOMEAN RATIO PREDICTED/OBSERVED: 0.77
  AUC(0-∞), MEAN RATIO PREDICTED/OBSERVED: 0.78
  Cmax, GEOMEAN RATIO PREDICTED/OBSERVED: 0.65
  Cmax, MEAN RATIO PREDICTED/OBSERVED: 0.66
[2]; with/without ketoconazole
  Ratio AUC(0-∞), GEOMEAN RATIO PREDICTED/OBSERVED: 1.00
  Ratio AUC(0-∞), MEAN RATIO PREDICTED/OBSERVED: 0.99
  Ratio Cmax, GEOMEAN RATIO PREDICTED/OBSERVED: 1.06
  Ratio Cmax, MEAN RATIO PREDICTED/OBSERVED: 1.05
[3]
  reversible inhibition of CYP3A4: not a reversible inhibitor; also recorded: no significant inhibition
[4]
  reversible inhibition of CYP2A6: not a reversible inhibitor; also recorded: no significant inhibition
[5]
  reversible inhibition of CYP2B6: not a reversible inhibitor; also recorded: no significant inhibition
[6]
  reversible inhibition of CYP2E1: not a reversible inhibitor; also recorded: no significant inhibition
[7]; 400 mg
  AUC(0-∞), observed Mean: 126 µg·h/mL
[7]; 400 mg, observed
  AUC(0-t): 86.6 µg·h/mL
[7]; 400 mg, observed Mean
  AUC(0-t): 89.9 µg·h/mL
  AUC(0-inf): 89.9 µg·h/mL
  Cmax: 16900 ng/mL
[7]; [11]
  AUC(0-inf): 119 µg·h/mL
  Cmax: 19400 ng/mL
[7]; 400 mg, observed, row headed % CV
  Cmax: 16200 ng/mL
[7]; po, 400 mg, observed Mean
  AUC(0-inf): 97.8 µg·h/mL
  Cmax: 16700 ng/mL
[7]; po, 800 mg, observed Mean
  AUC(0-inf): 183 µg·h/mL
  Cmax: 26400 ng/mL
[7]; po, 1600 mg, observed Mean
  AUC(0-inf): 437 µg·h/mL
  Cmax: 48800 ng/mL
[8]
  half-life: 5 to 7 h
[8]; po
  CL renal: 0.85 mL/min
  effect of crushing the tablet or antacids on bioavailability: wasn't affected
  effect of food on exposure: unaffected
  time to peak concentrations: 1 to 3 h
[9]; probe midazolam
  KI (inactivation): 41.2 µM
[9]; probe midazolam, midazolam as substrate
  kinact: 0.000195 s⁻¹
[9]; probe testosterone
  KI (inactivation): 167 µM
[9]; probe testosterone, testosterone as substrate
  kinact: 0.000595 s⁻¹
